Counter-ions that a name gives are not always drawn. Non-standard residues stand in square brackets, D forms with d. Residues, ends and D or L forms follow the SMILES beside them. *: point of attachment. hArg = N=C(N)NCCCC[C@H](N)C(=O)O; 3Pal = N[C@@H](Cc1cccnc1)C(=O)O; Tos = Cc1ccc(S(=O)(=O)*)cc1; Tfa = O=C(C(F)(F)F)*

One assay deals with T1, Neuropeptide S receptor (Mus musculus) (UniProt Q8BZP8).
T1 sequence (whole entry): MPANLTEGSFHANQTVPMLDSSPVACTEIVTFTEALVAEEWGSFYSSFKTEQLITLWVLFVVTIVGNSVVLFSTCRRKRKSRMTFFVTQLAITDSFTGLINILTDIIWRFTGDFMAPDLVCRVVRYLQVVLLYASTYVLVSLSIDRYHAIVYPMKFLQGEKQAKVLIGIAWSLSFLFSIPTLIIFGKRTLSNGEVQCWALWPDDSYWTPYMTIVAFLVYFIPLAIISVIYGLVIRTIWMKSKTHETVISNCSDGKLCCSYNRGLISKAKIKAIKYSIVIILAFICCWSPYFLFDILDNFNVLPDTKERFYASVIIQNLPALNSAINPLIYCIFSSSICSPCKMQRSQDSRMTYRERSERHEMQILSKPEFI
As to the kind of experiment: Agonist activity at mouse NPSR expressed in HEK293 cells assessed as increase in intracellular calcium mobilization by FLIPR relative to baseline. It is filed as functional, cell-based.
Regarding `CSCC[C@H](NC(=O)CNC(=O)[C@@H](NC(=O)CNC(=O)[C@@H](NC(=O)CNC(=O)[C@H](CC(N)=O)NC(=O)[C@H](CCCCNC(=O)C(F)(F)F)NC(=O)[C@H](Cc1ccccc1)NC(=O)[C@@H](N)CO)C(C)C)[C@@H](C)O)C(=O)N[C@@H](CCCCN)C(=O)N[C@@H](CCCCN)C(=O)N[C@H](C(=O)N[C@@H](CO)C(=O)N[C@@H](Cc1ccccc1)C(=O)N[C@@H](CCC(N)=O)C(=O)N[C@@H](CCCNC(=N)N)C(=O)N[C@@H](C)C(=O)N[C@@H](CCCCN)C(=O)N[C@@H](CO)C(=O)O)[C@@H](C)O` (H-SFK(Tfa)NGVGTGMKKTSFQRAKS-OH), the Emax – broadly, the greatest response seen or fitted, relative to the assay's reference – amounted to 231%. Regarding `CSCC[C@H](NC(=O)CNC(=O)[C@@H](NC(=O)CNC(=O)[C@@H](NC(=O)CNC(=O)[C@H](CC(N)=O)NC(=O)[C@H](CCCCNC(=N)N)NC(=O)[C@H](Cc1ccccc1)NC(=O)[C@@H](N)CO)C(C)C)[C@@H](C)O)C(=O)N[C@@H](CCCCN)C(=O)N[C@@H](CCCCN)C(=O)N[C@H](C(=O)N[C@@H](CO)C(=O)N[C@@H](Cc1ccccc1)C(=O)N[C@@H](CCC(N)=O)C(=O)N[C@@H](CCCNC(=N)N)C(=O)N[C@@H](C)C(=O)N[C@@H](CCCCN)C(=O)N[C@@H](CO)C(=O)O)[C@@H](C)O` (H-SF[hArg]NGVGTGMKKTSFQRAKS-OH), the Emax amounted to 288%.

For another assay, the target named is T1, Neuropeptide S receptor (Mus musculus). The experiment in a line: Agonist activity at mouse NPSR expressed in HEK293 cells assessed as increase in intracellular calcium mobilization at 10 uM by FLIPR. The format is functional, cell-based.
Take H-SFFNGVGTGMKKTSFQRAKS-OH: the Activity amounted to 46%.

As to `CSCC[C@H](NC(=O)CNC(=O)[C@@H](NC(=O)CNC(=O)[C@@H](NC(=O)CNC(=O)[C@H](CC(N)=O)NC(=O)[C@H](Cc1cccnc1)NC(=O)[C@H](Cc1ccccc1)NC(=O)[C@@H](N)CO)C(C)C)[C@@H](C)O)C(=O)N[C@@H](CCCCN)C(=O)N[C@@H](CCCCN)C(=O)N[C@H](C(=O)N[C@@H](CO)C(=O)N[C@@H](Cc1ccccc1)C(=O)N[C@@H](CCC(N)=O)C(=O)N[C@@H](CCCNC(=N)N)C(=O)N[C@@H](C)C(=O)N[C@@H](CCCCN)C(=O)N[C@@H](CO)C(=O)O)[C@@H](C)O` (H-SF[3Pal]NGVGTGMKKTSFQRAKS-OH), the Activity stood at 42%. On to H-SFYNGVGTGMKKTSFQRAKS-OH, for which the Activity is 73%. The same measure, in the same setting: with H-SFENGVGTGMKKTSFQRAKS-OH the figure was 89%; with `CSCC[C@H](NC(=O)CNC(=O)[C@@H](NC(=O)CNC(=O)[C@@H](NC(=O)CNC(=O)[C@H](CC(N)=O)NC(=O)[C@H](CCCNC(=N)NS(=O)(=O)c1ccc(C)cc1)NC(=O)[C@H](Cc1ccccc1)NC(=O)[C@@H](N)CO)C(C)C)[C@@H](C)O)C(=O)N[C@@H](CCCCN)C(=O)N[C@@H](CCCCN)C(=O)N[C@H](C(=O)N[C@@H](CO)C(=O)N[C@@H](Cc1ccccc1)C(=O)N[C@@H](CCC(N)=O)C(=O)N[C@@H](CCCNC(=N)N)C(=O)N[C@@H](C)C(=O)N[C@@H](CCCCN)C(=O)N[C@@H](CO)C(=O)O)[C@@H](C)O` (H-SFR(Tos)NGVGTGMKKTSFQRAKS-OH), 104%. On to H-SFRFGVGTGMKKTSFQRAKS-OH, for which the Activity came out at 118%. H-SFLNGVGTGMKKTSFQRAKS-OH: the Activity is 36%. For H-SFVNGVGTGMKKTSFQRAKS-OH, the Activity was determined as 129%. In the case of `CSCC[C@H](NC(=O)CNC(=O)[C@@H](NC(=O)CNC(=O)[C@@H](NC(=O)CNC(=O)[C@H](CC(=O)N(C)C)NC(=O)[C@H](CCCNC(=N)N)NC(=O)[C@H](Cc1ccccc1)NC(=O)[C@@H](N)CO)C(C)C)[C@@H](C)O)C(=O)N[C@@H](CCCCN)C(=O)N[C@@H](CCCCN)C(=O)N[C@H](C(=O)N[C@@H](CO)C(=O)N[C@@H](Cc1ccccc1)C(=O)N[C@@H](CCC(N)=O)C(=O)N[C@@H](CCCNC(=N)N)C(=O)N[C@@H](C)C(=O)N[C@@H](CCCCN)C(=O)N[C@@H](CO)C(=O)O)[C@@H](C)O` (H-SFRD(NMe2)GVGTGMKKTSFQRAKS-OH), the Activity was found to be 89%.

The target of the next assay is T2, Neuropeptide S receptor (Mus musculus, UniProt Q8BZP8).
T2 sequence (Q8BZP8 whole entry): T1 sequence (whole entry)
The experiment in a line: Agonist activity at mouse NPSR expressed in HEK293 cells assessed as increase in intracellular calcium mobilization by FLIPR. The format is functional, cell-based. In general terms: A change in cytosolic calcium serves as a functional read-out for many receptors and channels.
In the case of `CSCC[C@H](NC(=O)CNC(=O)[C@@H](NC(=O)CNC(=O)[C@@H](NC(=O)CNC(=O)[C@H](CC(N)=O)NC(=O)[C@H](CCCCNC(=O)C(F)(F)F)NC(=O)[C@H](Cc1ccccc1)NC(=O)[C@@H](N)CO)C(C)C)[C@@H](C)O)C(=O)N[C@@H](CCCCN)C(=O)N[C@@H](CCCCN)C(=O)N[C@H](C(=O)N[C@@H](CO)C(=O)N[C@@H](Cc1ccccc1)C(=O)N[C@@H](CCC(N)=O)C(=O)N[C@@H](CCCNC(=N)N)C(=O)N[C@@H](C)C(=O)N[C@@H](CCCCN)C(=O)N[C@@H](CO)C(=O)O)[C@@H](C)O` (H-SFK(Tfa)NGVGTGMKKTSFQRAKS-OH), the EC50 (in general, the concentration that produces a half-maximal response) is 85.1 nM. For the compound `CSCC[C@H](NC(=O)CNC(=O)[C@@H](NC(=O)CNC(=O)[C@@H](NC(=O)CNC(=O)[C@H](CC(N)=O)NC(=O)[C@H](CCCCNC(=N)N)NC(=O)[C@H](Cc1ccccc1)NC(=O)[C@@H](N)CO)C(C)C)[C@@H](C)O)C(=O)N[C@@H](CCCCN)C(=O)N[C@@H](CCCCN)C(=O)N[C@H](C(=O)N[C@@H](CO)C(=O)N[C@@H](Cc1ccccc1)C(=O)N[C@@H](CCC(N)=O)C(=O)N[C@@H](CCCNC(=N)N)C(=O)N[C@@H](C)C(=O)N[C@@H](CCCCN)C(=O)N[C@@H](CO)C(=O)O)[C@@H](C)O` (H-SF[hArg]NGVGTGMKKTSFQRAKS-OH), the EC50 is 10.7 nM.

For the origin of these results see ChEMBL document CHEMBL1152211, “Structure-activity study at positions 3 and 4 of human neuropeptide S” (Bioorg Med Chem, 2008).
